Measured values: patent US12053606B2, “Opioid overdose rescue device” (Celero Systems, Inc., priority 2019, dated 2024)

What was measured:
respiratory rate = assay: Induced morphine overdose and rescue with nalmefene in anesthetized porcine animal model; assay type: in vivo
Description: The following examples provides data collected from an opioid overdose rescue device during overdose and rescue animal studies. The opioid overdose rescue device included a substrate having a PPG sensor, accelerometer and microcontroller disposed thereon, which was coupled to a substrate having a radio, chip antenna, power management components, and magnet sensor (so the device could be turned on and off without direct contact) disposed thereon.
FIGS. 6A and 6B show an example PPG sensor recording from the intestines in an anesthetized porcine animal model during an overdose and recovery study. The PPG sensor was endoscopically placed into the small intestine and anchored to intestinal tissue with 2 endoclips—one on each side of the device.
Baseline data was collected for 8 minutes. Then 60 mg of IV morphine was administered over 3 minutes (20 mg each minute for 3 minutes). The respiratory rate as measured by the lab vitals monitoring equipment decreased eventually to zero, indicated respiratory failure. One minute after respiratory failure, 50 mg nalmefene in solution was administered endoscopically directly into the intestines. Within 4 minutes of nalmefene delivery breathing recovered and eventually returned to pre-overdose levels. […] In certain aspects, a method of mitigating the effects of an opioid overdose could involve determining when a measured respiratory rate drops below a threshold (e.g. 8 breaths per minute) for a duration of time (e.g. 30 seconds) and commanding release of a rescue medication.
In a different study than referenced in FIG. 7, the device was endoscopically placed and anchored in the animal's intestine in a similar manner. […] As with the PPG data, a measured respiratory rate obtained from the motion sensing (i.e. accelerometer) data in the intestine could be used to detect an opioid overdose and trigger delivery of a rescue medication.

[1] = test system: opiate receptors—μ, κ and δ; conditions: cited from earlier work
[2] = cited from earlier work

SMILES | respiratory rate after morphine (lab vitals monitor) (respiratory rate; 60 mg IV morphine over 3 minutes, zero indicates respiratory failure) | time after nalmefene delivery until breathing recovered (respiratory rate; PPG sensor study (FIG. 7), 50 mg nalmefene in solution endoscopically into the intestines, one minute after respiratory failure from 60 mg IV morphine) [min] | time after nalmefene delivery until respiratory rate restored to normal levels (respiratory rate; accelerometer study (FIG. 8), 50 mg nalmefene in solution endoscopically delivered after respiratory failure from 60 mg IV morphine) [min] | antagonist activity at opiate receptor types [1] | oral bioavailability [2] [%]
CN1CC[C@]23c4c5ccc(O)c4O[C@H]2[C@@H](O)C=C[C@H]3[C@H]1C5 [morphine] | zero | – | – | – | –
C=C1CC[C@@]2(O)[C@H]3Cc4ccc(O)c5c4[C@@]2(CCN3CC2CC2)[C@H]1O5 [nalmefene] | – | ≤ 4 | 14 | antagonist activity against all three types of opiate receptors | 41
